MIC and Retention time data for two compounds are collected here from publication PMC6383929, “Design, antimicrobial activity and mechanism of action of Arg-rich ultra-short cationic lipopeptides” (PLoS ONE, 2019).

Values after ≈ are worked out from the molar mass of the structure shown. Where a SMILES comes first, the peptide text is derived from it. The star is where a group is joined. Lauroyl = CCCCCCCCCCCC(=O)* Some results are limits rather than exact numbers.

One data set has as its system A. baumannii ATCC 19606. It is filed as cell-based, Acinetobacter baumannii. To be noted: ATCC 19606, 24 h. From the text: (§1) Bacteria used in this study were Escherichia coli ATCC 25922 and O18K1H7, Staphylococcus aureus ATCC 25923 and ATCC 29213, Pseudomonas aeruginosa ATCC 27853, Staphylococcus epidermidis ATCC 12228, Enterococcus faecalis ATCC 29212, Bacillus subtilis DSM 4181, Listeria monocytogenes DSM 20600, Salmonella typhimurium ATCC 14028, Acinetobacter baumannii ATCC 19606 and 17978, Klebsiella pneumoniae ATCC 13883 and 700603, Stenotrophomonas maltophilia ATCC 13637 and Burkholderia cenocepacia J2315. In addition to reference strains, a clinical isolate of E. faecalis vancomycin-resistant (VREF, strain M), and three clinical isolates of S. aureus methicillin-resistant (MRSA, strains E, G and 11), kindly provided by Dr. Lucilla Dolzani, were used. All MRSA strains are resistant to GEN, IPM, OXA, PEN, CIP and CEF; the S. aureus E strain is also resistant to CLI and ERY. VREF strain is resistant to AMK, ATM, GEN, NET, PEN, TEC, TET, TOB and VAN.
(§2) For the assays, overnight bacterial cultures were diluted 1:30 in fresh Mueller-Hinton Broth (MHB, Difco) and incubated at 37°C with shaking for approximately 2h.
(§3) The antimicrobial activity of USCLs was determined by the Minimum Inhibitory Concentration (MIC) assay, according to the guidelines of CLSI (Clinical & Laboratory Standards Institute) and described in [30, 31]. Briefly, the assays were performed in 96-well microplates in appropriate broth (MHB or SAB). […] For bacteria, a mid-log phase bacterial suspension at 2.5 × 10^5 CFU/mL in MHB was used, and the microplates incubated at 37°C for 24h. The fungal suspension in SAB broth was used at a final concentration of 5 × 10^4 cells/mL. Microplates were then incubated at 30°C for 48h. The MIC value was taken as the lowest concentration of USCLs resulting in the complete inhibition of visible bacterial or fungal growth after appropriate incubation time. Results derive from at least three independent experiments carried out in duplicate.

In another data set the test system is A. baumannii ATCC 17978. It is filed as cell-based, Acinetobacter baumannii. Conditions: ATCC 17978, 24 h.
Description: as §1, §2, §3

Data set [1] concerns K. pneumoniae ATCC 700603. It is filed as cell-based, Klebsiella pneumoniae. To be noted: ATCC 700603, 24 h.
Description: as §1, §2, §3

The test system of a further data set is K. pneumoniae ATCC 13883. It is filed as cell-based, Klebsiella pneumoniae. Conditions: ATCC 13883, 24 h.
Description: as §1, §2, §3

Data set [2] has as its system S. typhimurium ATCC 14028. It is filed as cell-based, Salmonella typhimurium. To be noted: ATCC 14028, 24 h.
Description: as §1, §2, §3

Data set [3] relates to S. epidermidis ATCC 12228. It is filed as cell-based, Staphylococcus epidermidis. To be noted: ATCC 12228, 24 h.
Description: as §1, §2
The antimicrobial activity of USCLs was determined by the Minimum Inhibitory Concentration (MIC) assay, according to the guidelines of CLSI (Clinical & Laboratory Standards Institute) and described in [30, 31]. […]

Another data set deals with B. cenocepacia J2315. It is filed as cell-based, Burkholderia cenocepacia. Conditions: 48 h.
Description: as §1, §2
as §3, with “For bacteria, a mid-log phase bacterial suspension at 2.5 × 10^5 CFU/mL in MHB was used, and the microplates incubated at 37°C for 24h.” left out

The subject of another data set is S. aureus ATCC 29213. It is filed as cell-based, Staphylococcus aureus. Conditions: ATCC 29213, 24 h.
Description: as §1, §2, §3

Data set [4] has as its system S. aureus E (MRSA clinical isolate). It is filed as cell-based, Staphylococcus aureus. Conditions: E ( clinical isolate, 24 h).
Description: as §1, §2, §3

Data set [5] concerns S. aureus G (MRSA clinical isolate). It is filed as cell-based, Staphylococcus aureus. Conditions: G ( clinical isolate, 24 h).
Description: as §1, §2, §3

Data set [6] has as its system S. maltophilia ATCC 13637. It is filed as cell-based, Stenotrophomonas maltophilia. Conditions: ATCC 13637, 48 h.
Description: as §1, §2
as §3, with “For bacteria, a mid-log phase bacterial suspension at 2.5 × 10^5 CFU/mL in MHB was used, and the microplates incubated at 37°C for 24h.” left out

In another data set the test system is B. subtilis DSM 4181. It is filed as cell-based, Bacillus subtilis. Conditions: DSM 4181, 24 h.
Description: as §1, §2, §3

The test system of another data set is E. coli O18K1H7. It is filed as cell-based, Escherichia coli. Conditions: O18K1H7, 24 h.
Description: as §1, §2, §3

In data set [7] the test system is L. monocytogenes DSM 20600. It is filed as cell-based, Listeria monocytogenes. Conditions: DSM 20600, 24 h.
Description: as §1, §2, §3

Data set [8] can be described thus: RP-HPLC retention time (hydrophobicity). It is filed as physicochemical. To be noted: stated to reliably reflect the hydrophobicity in aqueous solution, assessed and provided by GenScript. How it is done: GenScript (Piscataway, NJ, USA) carried out the custom synthesis of USCLs by using high efficient solid phase peptide synthesis. The fatty acid was conjugated to the N-terminus of the peptide using the same procedure followed to attach protected amino acids to the growing peptide chain for synthesis. The purity (>90%), sequence and molecular weight of USCLs were assessed and provided by GenScript using RP-HPLC and ESI-MS. USCLs were dissolved in sterile water or DMSO at 10 mg/mL, according to manufacturer's indications.

The next data set relates to E. faecalis ATCC 29212. It is filed as cell-based, Enterococcus faecalis. Conditions: ATCC 29212, 24 h.
Description: as §1, §2, §3

Data set [9] has as its system E. faecalis M (VREF clinical isolate). It is filed as cell-based, Enterococcus faecalis. Conditions: M (VREF clinical isolate, 24 h).
Description: as §1, §2, §3

In a further data set the test system is S. aureus ATCC 25923. It is filed as cell-based, Staphylococcus aureus. To be noted: ATCC 25923, 24 h.
Description: as §1, §2, §3

Data set [10] has as its system S. aureus 11 (MRSA clinical isolate). It is filed as cell-based, Staphylococcus aureus. To be noted: 11 ( clinical isolate, 24 h).
Description: as §1, §2, §3

In a further data set the test system is C. albicans ATCC 90029. It is filed as cell-based, Candida albicans. To be noted: ATCC 90029, 48 h. How it is done:
(§4) Fungal strains used were Candida albicans ATCC 90029 and SC5314. Fungi were grown on Sabouraud dextrose (SAB, Difco) agar plates at 30°C for 48h. The initial fungal inoculum was prepared by picking and suspending five colonies in 5 mL of sterile PBS.
as §3

For a further data set, the system named is C. albicans SC 5314. It is filed as cell-based, Candida albicans. To be noted: SC 5314, 48 h. As for the experimental part: as §4, §3

As usually defined, the MIC is the least concentration at which growth counts as inhibited.

Consider `CCCCCCCCCCCC(=O)N[C@@H](CCCNC(=N)N)C(=O)N[C@H](C(=O)N[C@@H](Cc1c[nH]c2ccccc12)C(=O)N[C@@H](CCCNC(=N)N)C(N)=O)[C@@H](C)CC` [Lp-I] (Lauroyl-RIWR-NH2), for which the MIC against A. baumannii ATCC 19606 is 25 µg/mL (≈ 30.8 µM); against A. baumannii ATCC 17978, 25 µg/mL (≈ 30.8 µM); in data set [1], 50 µg/mL (≈ 61.6 µM); with K. pneumoniae ATCC 13883, 100 µg/mL (≈ 123 µM); in [2], 25 µg/mL (≈ 30.8 µM); in data set [3], 3.125 µg/mL (≈ 3.85 µM). For the same compound, the minimal inhibitory concentration (MIC) against B. cenocepacia J2315 was 12.5 µg/mL (≈ 15.4 µM); in the data set with S. aureus ATCC 29213, 3.125 µg/mL (≈ 3.85 µM); in data set [4], 3.125 µg/mL (≈ 3.85 µM); in data set [5], 3.125 µg/mL (≈ 3.85 µM).
As to `CCCCCCCCCCCC(=O)N[C@@H](CCCNC(=N)N)C(=O)N[C@@H](CCSC)C(=O)N[C@@H](Cc1c[nH]c2ccccc12)C(=O)N[C@@H](CCCNC(=N)N)C(N)=O` [Lp-M, Lau-RMWR-NH2] (Lauroyl-RMWR-NH2), the MIC in data set [6] was 12.5 µg/mL (≈ 15.1 µM); against A. baumannii ATCC 19606 it was 25 µg/mL (≈ 30.2 µM); against A. baumannii ATCC 17978, 25 µg/mL (≈ 30.2 µM); in data set [1], 100 µg/mL (≈ 121 µM); in the data set with K. pneumoniae ATCC 13883 it was above 100 µg/mL; against B. subtilis DSM 4181, 3.125 µg/mL (≈ 3.77 µM). The minimum inhibitory concentration (MIC) was 25 µg/mL (≈ 30.2 µM) in the data set on E. coli O18K1H7; 3.125 µg/mL (≈ 3.77 µM) in [3]; 3.125 µg/mL (≈ 3.77 µM) in data set [7]; 6.25 µg/mL (≈ 7.54 µM) in the data set with E. faecalis ATCC 29212; 12.5 µg/mL (≈ 15.1 µM) in data set [9]; 25 µg/mL (≈ 30.2 µM) against B. cenocepacia J2315. For the same compound, the MIC in the data set on S. aureus ATCC 25923 came out at 6.25 µg/mL (≈ 7.54 µM); in [4] it was 6.25 µg/mL (≈ 7.54 µM); in [10], 6.25 µg/mL (≈ 7.54 µM); in data set [5], 6.25 µg/mL (≈ 7.54 µM); in the data set with C. albicans ATCC 90029, 3.125 µg/mL (≈ 3.77 µM); in the data set with C. albicans SC 5314 it was 12.5 µg/mL (≈ 15.1 µM). This compound also showed a Retention time in data set [8] of 12.393 min.
